# According to US3963745A, “Method for controlling emesis with N-(1-substituted-3-pyrrolidinyl)benzamides and thiobenzamides” (A. H. Robins Company, Incorporated, priority 1974, dated 1976):
# Counter-ions that a name gives are not always drawn. Like-named read-outs stand apart in the source and are kept apart here.
# Legend:
# Assay type in all cases: in vivo
# [1] = system: apomorphine-induced emesis; test: apomorphine-induced emesis in dogs (anti-emetic effect); conditions: for ED50: Canis lupus familiaris
# Procedure: The anti-emetic properties of the compounds of Formulae I and II were established using a modification of the methods of Chen and Ensor, J. Pharmac. Exp. Ther. 98: 245-250 (1950) and of Leonard et al, J. Pharmac. Exp. Ther. 154, 339-345 (1966). Drug activity was assessed by its ability to reduce the frequency of apomorphine-induced emesis in dogs. The dogs were prescreened for fairly constant emetic responses to the subcutaneous administration of 0.1 mg./kg. of apomorphine hydrochloride, and those which vomited five or more times in the 40-minute period after apomorphine administration were selected for drug studies.
# Groups of three dogs were used in preliminary tests and for the determinations of time of peak drug effect. Dose response curves were usually obtained using four drug-treated groups; each group contained at least three dogs. The dogs were fed approximately 17 hours prior to a test. Drugs were administered and at suitable intervals the dogs received 0.1 mg/kg of apormorphine hydrochloride subcutaneously. Frequency of emesis was determined during the next 40 minutes and emesis was counted as the actual expulsion of stomach contents.
# In oral studies, drugs were administered in gelatin capsules (controls received an empty capsule). In the subcutaneous studies, drugs were administered in distilled water and/or polyethylene glycol-300.
# Dogs were re-used at intervals of not less than one week. The ED50 is the dose which reduces the frequency of emesis of drug treated dogs to a value 50% below that of controls. Mean frequency of emesis for each drug treated group was compared with a mean control value derived by pooling the prior control emetic frequencies for all dogs used on that test day. The difference is expressed as a percentage decrease relative to controls. The per cent decrease in mean frequency of emesis for each drug-treated group (ordinate) was plotted against log dose (abscissa) on semi-log graph sheets. The ED50 was calculated by the method of Goldstein (Biostatistics, An Introductory Test; Pages 156-161; the MacMillan Co., New York, 1964).
# [2] = system: catalepsy in rats; test: Catalepsy in rats; conditions: Table 7, rats, IP
# Procedure: (§1) Drugs were blind tested with positive and negative controls. The procedure used is a modification of the method previously described by Tedeschi et al., Archs. Int. Pharmacodyn. Ther. 122, 129-143 (1959). The modified procedure is as follows.
# (§2) Groups of six rats are dosed (IP) with drugs in saline solution and tested hourly over a 6 hour period. A phenothiazine or non-phenothiazine reference standard is tested concomitantly as a positive control; negative controls receive only the saline vehicle. After administration the rats are positioned hourly with each foot on a No. 7 rubber stopper. A rat is considered cataleptic if it remains immobile on the stoppers for five seconds or longer at two or more consecutive hourly observation intervals. […] Exp. Ther. 96, 99-113 (1949).
# [3] = Catalepsy in rats; conditions: rat, in vivo, ip
# Procedure: as §1, §2
# [4] = sc, Table 4, dogs, subcutaneous, doses expressed as free base, read-out: ED50, Anti-Emetic Effect of Subcutaneous Administration
# [5] = sc, Table 7, dogs, subcutaneous, as free base, read-out: Anti-Apomorphine Effect ED50
# [6] = sc, read-out: ED50, Anti-Emetic Effect of Subcutaneous Administration
# [7] = sc, Table 6, dogs, subcutaneous, as free base, read-out: Anti-Apomorphine Effect ED50
# [8] = Table 5, dogs, oral, doses expressed as free base, read-out: ED50, Anti-Emetic Effect of Oral Administration
compound,measurement,setting,value
"O=C(NC1CCN(C2CCCCC2)C1)c1cccc(Br)c1 (stereo not drawn) [Example 1, N-(1-Cyclohexyl-3-pyrrolidinyl)-3-bromobenzamide]",ED50,[1]; [4],0.4 mg/kg
"O=C(NC1CCN(C2CCCCC2)C1)c1ccccc1F (stereo not drawn) [Example 2, N-(1-Cyclohexyl-3-pyrrolidinyl)-2-fluorobenzamide hydrochloride]",ED50,[1]; [4],1.6 mg/kg
"CN(C(=O)c1ccc(N)cc1)C1CCN(C2CCCCC2)C1 (stereo not drawn) [Example 4, 4-Amino-N-(1-cyclohexyl-3-pyrrolidinyl)-N-methylbenzamide Cyclohexanesulfamate]",Catalepsy (ED50 or other): no catatonia up to dose,[2]; as free base,no catatonia to 125
same,ED50,[1]; [5],0.27 mg/kg
same,ED50,"[1]; sc, dogs, subcutaneous, cyclohexanesulfamate salt dose, read-out: ED50 for subcutaneous administration",0.43 mg/kg
same,ED50,"[1]; sc, dogs, subcutaneous, expressed as free base (Example 1P), read-out: ED50 for subcutaneous administration, expressed as free base",0.27 mg/kg
same,blockage of apomorphine induced emesis,"[1]; dogs, oral capsules 2.5 mg./kg., apomorphine after two hours",95%
same,blockage of emesis,"[1]; dogs, subcutaneous 5.0 mg./kg. (3.12 mg./kg. as free base), apomorphine one hour later, 40-minute period",100%
"CN(C)c1ccc(C(=O)N(C)C2CCN(C3CCCCC3)C2)cc1 (stereo not drawn) [Example 6, N-(1-Cyclohexyl-3-pyrrolidinyl)-p-dimethylamino-N-methylbenzamide Fumarate]",ED50,[1]; [4],1.1 mg/kg
"CC(=O)Nc1ccc(C(=O)NC2CCN(C3CCCCC3)C2)cc1 (stereo not drawn) [Example 7, N-(1-Cyclohexyl-3-pyrrolidinyl)-4-acetamidobenzamide]",ED50,[1]; [6],2.4 mg/kg
"CN1CCC(NC(=O)c2ccccc2)C1.O=C(O)/C=C/C(=O)O (stereo not drawn) [Example 8(A), N-(1-Methyl-3-pyrrolidinyl)benzamide Fumarate, reference compound]",ED50,[1]; [7],3.2 mg/kg
"COc1cc(N)c(Cl)cc1C(=O)NC1CCN(C)C1 (stereo not drawn) [Example 8(B), 4-Amino-5-chloro-2-methoxy-N-(1-methyl-3-pyrrolidinyl)benzamide, reference compound]",ED50,[1]; [7],0.053 mg/kg
"CNc1ccc(C(=O)N(C)C2CCN(C3CCCCC3)C2)cc1.Cl.Cl (stereo not drawn) [Example 9, 4-Methylamino-N-(1-cyclohexyl-3-pyrrolidinyl)-N-methylbenzamide Dihydrochloride]",ED50,[1]; [4],0.5 mg/kg
O=C(NC1CCN(C2CCCCC2)C1)c1ccc(F)cc1 (stereo not drawn) [Example 10],ED50,[1]; [6],0.15 mg/kg
same,ED50,[1]; [8],1.5 mg/kg
O=C(NC1CCN(C2CCCCC2)C1)c1ccc(Br)cc1 (stereo not drawn) [Example 11],ED50,[1]; [4],0.7 mg/kg
O=C(NC1CCN(C2CCCCC2)C1)c1cc([N+](=O)[O-])cc([N+](=O)[O-])c1 (stereo not drawn) [Example 12],ED50,[1]; [6],0.15 mg/kg
O=C(NC1CCN(C2CCCCC2)C1)c1ccc(Cl)c(Cl)c1 (stereo not drawn) [Example 13],ED50,[1]; [4],0.28 mg/kg
CCOc1ccc(C(=O)NC2CCN(C3CCCCC3)C2)cc1OCC (stereo not drawn) [Example 15],ED50,[1]; [4],0.66 mg/kg
O=C(NC1CCN(C2CCCCC2)C1)c1cccc(C(F)(F)F)c1 (stereo not drawn) [Example 16],ED50,[1]; [4],0.18 mg/kg
O=C(NC1CCN(C2CCCCC2)C1)c1ccc(Cl)cc1 (stereo not drawn) [Example 17],ED50,[1]; [4],0.28 mg/kg
COc1cc(C(=O)NC2CCN(C3CCCCC3)C2)cc(OC)c1OC (stereo not drawn) [Example 18],ED50,[1]; [4],0.4 mg/kg
O=C(NC1CCN(C2CCCCC2)C1)c1ccc(I)cc1 (stereo not drawn) [Example 20],ED50,[1]; [4],1.25 mg/kg
Nc1ccc(C(=O)NC2CCN(C3CCCCC3)C2)cc1 (stereo not drawn) [Example 23],"Catalepsy, percentage of rats cataleptic",[2]; at 94.2 mg/kg as free base,33%
same,ED50,[1]; [4],1.67 mg/kg
same,ED50,[1]; [5],1.7 mg/kg
same,ED50,[1]; [8],2.5 mg/kg
O=C(NC1CCN(C2CCCCC2)C1)c1ccccc1 (stereo not drawn) [Example 24],ED50,[1]; [4],0.28 mg/kg
same,ED50,[1]; [7],0.28 mg/kg
O=C(NC1CCN(C2CCCCC2)C1)c1ccc([N+](=O)[O-])cc1 (stereo not drawn) [Example 25],TD50 at 6 h,[3],28 mg/kg
same,ED50,[1]; [4],2.03 mg/kg
same,ED50,[1]; [5],1.8 mg/kg
CN(C(=O)c1ccc([N+](=O)[O-])cc1)C1CCN(C2CCCCC2)C1 (stereo not drawn) [Example 27],Catalepsy (ED50 or other): no catatonia up to dose,[2]; as free base,no catatonia to 100
same,lethal dose,[2]; as free base,100 mg/kg
same,ED50,[1]; [5],10 mg/kg
O=C(NC1CCN(C2CCCCC2)C1)c1ccc(Cl)cc1Cl (stereo not drawn) [Example 32],ED50,[1]; [6],2.4 mg/kg
CSc1ccc(C(=O)NC2CCN(C3CCCCC3)C2)cc1 (stereo not drawn) [Example 33],ED50,[1]; [4],0.88 mg/kg
COc1ccc(C(=O)NC2CCN(C3CCCCC3)C2)c(OC)c1 (stereo not drawn) [Example 34],ED50,[1]; [4],0.026 mg/kg
CN(C)c1ccc(C(=O)NC2CCN(C3CCCCC3)C2)cc1 (stereo not drawn) [Example 35],ED50,[1]; [4],0.89 mg/kg
Cc1ccc(C(=O)NC2CCN(C3CCCCC3)C2)cc1 (stereo not drawn) [Example 36],ED50,[1]; [4],0.31 mg/kg
COc1cc(N)c(Cl)cc1C(=O)NC1CCN(C2CCCCC2)C1 (stereo not drawn) [Example 37],ED50,[1]; [4],0.003 mg/kg
same,ED50,[1]; [7],0.003 mg/kg
